IC50 data for 29 molecules are collected here from patent US9540391B2, “Isomannide derivatives as inhibitors of soluble epoxide hydrolase” (SANOFI, priority 2013, dated 2017).

In the experiment the target is T1, recombinant sEH (Homo sapiens, UniProt P34913).
T1 construct: made in house; host or cells: Sf9 insect cells
T1 sequence (P34913 1-555): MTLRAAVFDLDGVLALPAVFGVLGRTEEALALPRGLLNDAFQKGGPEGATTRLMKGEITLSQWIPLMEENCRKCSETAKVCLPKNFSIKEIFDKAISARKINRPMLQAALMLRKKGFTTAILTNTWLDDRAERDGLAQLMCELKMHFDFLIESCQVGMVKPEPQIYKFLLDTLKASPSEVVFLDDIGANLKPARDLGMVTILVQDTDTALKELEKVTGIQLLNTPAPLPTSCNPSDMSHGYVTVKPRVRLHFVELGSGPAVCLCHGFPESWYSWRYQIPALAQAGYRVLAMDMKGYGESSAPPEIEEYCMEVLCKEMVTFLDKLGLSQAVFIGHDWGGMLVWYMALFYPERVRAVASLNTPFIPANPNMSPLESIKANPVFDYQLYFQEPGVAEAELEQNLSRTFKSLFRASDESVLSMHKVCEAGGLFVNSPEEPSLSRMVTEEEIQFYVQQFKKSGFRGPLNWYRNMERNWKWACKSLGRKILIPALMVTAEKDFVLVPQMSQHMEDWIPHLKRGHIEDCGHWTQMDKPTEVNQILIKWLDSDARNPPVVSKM
As to the kind of experiment: biochemical screening assay for inhibition of soluble epoxide hydrolase (fluorometric, Phome substrate). The gist of the method:
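Reading fluorescence before substrate addition and after completion corrected for autofluorescence. Reaction: 5 μM Phome, 2 nM recombinant human sEH (Sf9-expressed), compound 0.0001–10 μM, 25 mM Hepes with 0.01% albumin, 15 min pre-incubation then 60 min at 30 °C; IC50 derived from % inhibition.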
A word on the IC50: it is the concentration at which inhibition is half-maximal. On to `O=C(NC1CCCCC1)N[C@H]1CO[C@H]2[C@@H]1OC[C@@H]2Oc1ccccn1` [Example 3, 1-cyclohexyl-3-[(3S,3aR,6S,6aS)-6-(pyridin-2-yloxy)-hexahydro-furo[3,2-b]furan-3-yl]-urea], for which the IC50 came to 12 nM. Under `CC(C)(CCO)S[C@H]1CO[C@H]2[C@@H]1OC[C@@H]2NC(=O)NC1CCCCC1` [Example 22, 1-Cyclohexyl-3-[(3S,3aR,6S,6aS)-6-(3-hydroxy-1,1-dimethyl-propylsulfanyl)-hexahydro-furo[3,2-b]furan-3-yl]-urea] stands 3 nM. As to `N#Cc1ncccc1O[C@H]1CO[C@H]2[C@@H]1OC[C@@H]2NC(=O)NC1CCCCC1` [Example 40, 1-[(3S,3aR,6S,6aS)-6-(2-Cyano-pyridin-3-yloxy)-hexahydro-furo[3,2-b]furan-3-yl]-3-cyclohexyl-urea], the IC50 amounted to 11 nM. The figure for `Cc1ncccc1O[C@H]1CO[C@H]2[C@@H]1OC[C@@H]2NC(=O)NC1CCN(C)C1=O` (stereo partly drawn) [Example 252, 1-(1-Methyl-2-oxo-pyrrolidin-3-yl)-3-[(3S,3aR,6S,6aS)-6-(2-methyl-pyridin-3-yloxy)-hexahydro-furo[3,2-b]furan-3-yl]-urea] is 3520 nM; for `O=C(NCc1ccc(F)cc1)NC1COC2C(CCc3ccsc3)COC12` [Example 364, 1-(4-Fluoro-benzyl)-3-[(3S,3aR,6R)-6-((S)-2-thiophen-3-yl-ethyl)-hexa-hydro-furo[3,2-b]furan-3-yl]-urea] it is 29 nM; for `O=C(Nc1ccc(OC(F)(F)F)cc1)N[C@H]1CO[C@H]2[C@@H]1OC[C@@H]2/C=C\c1ccccc1` [Example 332, 1-[(3S,3aR,6S,6aR)-6-((Z)-Styryl)-hexahydro-furo[3,2-b]furan-3-yl]-3-(4-trifluoromethoxy-phenyl)-urea] it is 11 nM. As for `O=C(NC1CCc2ccccc21)NC1COC2C(Oc3ccc(F)cc3)COC12` [Example 150, 1-[(3S,3aR,6S,6aS)-6-(4-Fluoro-phenoxy)-hexahydro-furo[3,2-b]furan-3-yl]-3-(S)-indan-1-yl-urea], the IC50 was 16 nM. Under `Cc1cc(C)cc(NC(=O)NC2COC3C(C#Cc4ccccc4)COC23)c1` [Example 285, 1-(3,5-Dimethyl-phenyl)-3-[(3S,3aR,6R)-6-((S)-phenylethynyl)-hexahydro-furo[3,2-b]furan-3-yl]-urea] stands 21 nM; under `O=C(N[C@H]1CO[C@H]2[C@@H]1OC[C@@H]2Oc1ccc(F)cc1)N[C@H]1CCCC[C@@H]1OCc1ccccc1` [Example 163, 1-((1S,2S)-2-Benzyloxy-cyclohexyl)-3-[(3S,3aR,6S,6aS)-6-(4-fluoro-phenoxy)-hexahydro-furo[3,2-b]furan-3-yl]-urea], 192 nM; under `O=C(NC1CCCCC1)N[C@H]1CO[C@H]2[C@@H]1OC[C@@H]2Oc1ccc(N2CCCC2)nc1` [Example 70, 1-cyclohexyl-3-[(3S,3aR,6S,6aS)-6-(6-pyrrolidin-1-yl-pyridin-3-yloxy)-hexahydro-furo[3,2-b]furan-3-yl]-urea], 1 nM. Under `Cc1ncccc1O[C@H]1CO[C@H]2[C@@H]1OC[C@@H]2NC(=O)NC(C)(C)c1ccncc1` [Example 250, 1-(1-Methyl-1-pyridin-4-yl-ethyl)-3-[(3S,3aR,6S,6aS)-6-(2-methyl-pyridin-3-yloxy)-hexahydro-furo[3,2-b]furan-3-yl]-urea] stands 3120 nM; under `Cc1ncccc1O[C@H]1CO[C@H]2[C@@H]1OC[C@@H]2NC(=O)NC1CCCCC1C(F)(F)F` (stereo partly drawn) [Example 275, 1-[(3S,3aR,6S,6aS)-6-(2-Methyl-pyridin-3-yloxy)-hexahydro-furo[3,2-b]furan-3-yl]-3-(2-trifluoromethyl-cyclohexyl)-urea], 19 nM. With `Cc1cccc(CNC(=O)N[C@H]2CO[C@H]3[C@@H]2OC[C@@H]3/C=C\c2ccsc2)c1` [Example 339, 1-(3-Methyl-benzyl)-3-[(3S,3aR,6S,6aR)-6-((Z)-2-thiophen-3-yl-vinyl)-hexahydro-furo[3,2-b]furan-3-yl]-urea], the 50% inhibitory concentration (IC50) came out at 418 nM. Under `Cc1ncccc1O[C@H]1CO[C@H]2[C@@H]1OC[C@@H]2NC(=O)N[C@@H]1CCCC[C@H]1F` [Example 274, 1-((1R,2R)-2-Fluoro-cyclohexyl)-3-[(3S,3aR,6S,6aS)-6-(2-methyl-pyridin-3-yloxy)-hexahydro-furo[3,2-b]furan-3-yl]-urea] stands 14 nM. Under `O=C(NC1CCCCC1)N[C@H]1CO[C@H]2[C@@H]1OC[C@@H]2Oc1cccc(C(F)(F)F)c1` [Example 125, 1-Cyclohexyl-3-[(3S,3aR,6S,6aS)-6-(3-trifluoromethyl-phenoxy)-hexa-hydro-furo[3,2-b]furan-3-yl]-urea] stands 3 nM; under `Cc1ncccc1O[C@H]1CO[C@H]2[C@@H]1OC[C@@H]2NC(=O)NC1CCC(F)(F)CC1` [Example 89, 1-(4,4-difluoro-cyclohexyl)-3-[(3S,3aR,6S,6aS)-6-(2-methyl-pyridin-3-yloxy)-hexahydro-furo[3,2-b]furan-3-yl]-urea], 5 nM; under `Cc1ncccc1O[C@H]1CO[C@H]2[C@@H]1OC[C@@H]2NC(=O)N[C@@H]1C[C@H](C)CC[C@H]1C(C)C` [Example 174, 1-((1R,2S,5R)-2-Isopropyl-5-methyl-cyclohexyl)-3-[(3S,3aR,6S,6aS)-6-(2-methyl-pyridin-3-yloxy)-hexa-hydro-furo[3,2-b]furan-3-yl]-urea], 31 nM. Under `Cc1cc(C)nc(S[C@H]2CO[C@H]3[C@@H]2OC[C@@H]3NC(=O)NC2CCCCC2)n1` [Example 47, 1-Cyclohexyl-3-[(3S,3aR,6S,6aS)-6-(4,6-dimethyl-pyrimidin-2-ylsulfanyl)-hexahydro-furo[3,2-b]furan-3-yl]-urea] stands 51 nM. With `Cc1ncccc1O[C@H]1CO[C@H]2[C@@H]1OC[C@@H]2NC(=O)NC1CCCC(C(F)(F)F)C1` (stereo partly drawn) [Example 90, 1-[(3S,3aR,6S,6aS)-6-(2-methyl-pyridin-3-yloxy)-hexahydro-furo[3,2-b]furan-3-yl]-3-(3-trifluoromethyl-cyclohexyl)-urea], the IC50 came to 1 nM. On to `Cc1ncccc1O[C@H]1CO[C@H]2[C@@H]1OC[C@@H]2NC(=O)N[C@H]1CC[C@@H](C)CC1` [Example 272, 1-(cis-4-Methyl-cyclohexyl)-3-[(3S,3aR,6S,6aS)-6-(2-methyl-pyridin-3-yloxy)-hexahydro-furo[3,2-b]furan-3-yl]-urea], for which the IC50 was 1 nM. The figure for `Cc1ccnc(C)c1O[C@H]1CO[C@H]2[C@@H]1OC[C@@H]2NC(=O)NC1CCCCC1` [Example 37, 1-Cyclohexyl-3-[(3S,3aR,6S,6aS)-6-(2,4-dimethyl-pyridin-3-yloxy)-hexa-hydro-furo[3,2-b]furan-3-yl]-urea] is 1 nM; for `O=C(Nc1ccc(OC(F)(F)F)cc1)N[C@H]1CO[C@H]2[C@@H]1OC[C@@H]2C#Cc1ccccc1` [Example 298, 1-((3S,3aR,6S,6aR)-6-Phenylethynyl-hexahydro-furo[3,2-b]furan-3-yl)-3-(4-trifluoromethoxy-phenyl)-urea] it is 25 nM; for `O=C(NC1CCCCC1)N[C@H]1CO[C@H]2[C@@H]1OC[C@@H]2Oc1cccc(N2CCCC2=O)c1` [Example 107, 1-Cyclohexyl-3-{(3S,3aR,6S,6aS)-6-[3-(2-oxo-pyrrolidin-1-yl)-phenoxy]-hexahydro-furo[3,2-b]furan-3-yl}-urea] it is 2 nM. The figure for `Cc1ncccc1O[C@H]1CO[C@H]2[C@@H]1OC[C@@H]2NC(=O)NC1(C#N)CCCCC1` [Example 220, 1-(1-Cyano-cyclohexyl)-3-[(3S,3aR,6S,6aS)-6-(2-methyl-pyridin-3-yloxy)-hexahydro-furo[3,2-b]furan-3-yl]-urea] is 506 nM; for `O=C(NC1CCCCC1)N[C@H]1CO[C@H]2[C@@H]1OC[C@@H]2OCC(F)(F)F` [Example 19, 1-Cyclohexyl-3-[(3S,3aR,6S,6aS)-6-(2,2,2-trifluoro-ethoxy)-hexahydro-furo[3,2-b]furan-3-yl]-urea] it is 9 nM. Under `C[C@@H](NC(=O)N[C@H]1CO[C@H]2[C@@H]1OC[C@@H]2Oc1ccc(F)cc1)c1ccc(F)cc1` [Example 159, 1-[(3S,3aR,6S,6aS)-6-(4-Fluoro-phenoxy)-hexahydro-furo[3,2-b]furan-3-yl]-3-[(R)-1-(4-fluoro-phenyl)-ethyl]-urea] stands 5 nM. For the molecule `O=C(NC1CCCCC1)N[C@H]1CO[C@H]2[C@@H]1OC[C@@H]2Oc1cccc(Cl)c1Cl` [Example 97, 1-Cyclohexyl-3-[(3S,3aR,6S,6aS)-6-(2,3-dichloro-phenoxy)-hexahydro-furo[3,2-b]furan-3-yl]-urea], the IC50 is 3 nM. In the case of `O=C(NCc1ccc(F)cc1)N[C@H]1CO[C@H]2[C@@H]1OC[C@@H]2/C=C\c1ccsc1` [Example 338, 1-(4-Fluoro-benzyl)-3-[(3S,3aR,6S,6aR)-6-((Z)-2-thiophen-3-yl-vinyl)-hexahydro-furo[3,2-b]furan-3-yl]-urea], the concentration for half-maximal inhibition (IC50) worked out at 392 nM. Under `Cc1cncc(O[C@H]2CO[C@H]3[C@@H]2OC[C@@H]3NC(=O)NC2CCCCC2)c1` [Example 36, 1-Cyclohexyl-3-[(3S,3aR,6S,6aS)-6-(5-methyl-pyridin-3-yloxy)-hexa-hydro-furo[3,2-b]furan-3-yl]-urea] stands 1 nM.
